Assay results as given in patent US10294234B2, “HIV inhibitor compounds” (priority 2017, dated 2019).
Read-outs that look alike come from different tables or passages of the source.

Columns and labels:
[1] = In short: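 Test compounds at 1 uM incubated in duplicate with dog, rat and human liver microsomes (0.5 mg/mL protein) plus NADPH-regenerating system; sampled at 2, 12, 25, 45 and 65 minutes. Parent remaining monitored by LC/MS/MS; Clint calculated from in vitro t1/2.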
[2] = system: HIV-1 (IIIB) in MT-4 cells; test: MT-4 HIV assay; assay type: cell-based; conditions: Human immunodeficiency virus 1, MT4, 120 h
In short: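 MT-4 cells infected with HIV-1 IIIB (1:250 stock dilution) were incubated with 1:3 serially diluted compounds in RPMI with 10% FBS for 5 days at 37 °C. Cell Titer Glo luminescence was the readout. Plates included mock-infected wells, no-drug wells and 5 uM AZT controls.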

[3] = HIV-1 (IIIB), MT-4 cells, 5 days, Cell Titer Glo, read-out: EC50
[4] = human liver microsomes 0.5 mg/mL, 1 uM compound, NADPH

Q: What does the source list for `COC(=O)N[C@H](C(=O)N[C@@H](Cc1ccc(C#Cc2ccc(N3CC4CCC(C3)N4C3COC3)nc2)cc1)[C@@H](O)CN(Cc1c(F)cc(-c2ccn([C@H]3CCOC3)n2)cc1F)NC(=O)[C@@H](NC(=O)OC)C(C)(C)C(F)(F)F)C(C)(C)C(F)(F)F` [Example 14, Methyl ((5S,8S,9S,14S)-11-(2,6-difluoro-4-(1-((S)-tetrahydrofuran-3-yl)-1H-pyrazol-3-yl)benzyl)-16,16,16-trifluoro-9-hydroxy-15,15-dimethyl-8-(4-((6-(8-(oxetan-3-yl)-3,8-diazabicyclo[3.2.1]octan-3-yl)pyridin-3-yl)ethynyl)benzyl)-3,6,13-trioxo-5-(1,1,1-trifluoro-2-methylpropan-2-yl)-2-oxa-4,7,11,12-tetraazahexadecan-14-yl)carbamate]?
A: Human Pred Cl. ([1]; human, microsomes): 0.66 L/H/kg; Rat. Pred. Cl. ([1]; rat, microsomes): 1.13 L/H/kg; EC50 [2, 3]: 4.39 nM

Q: With `COC(=O)N[C@H](C(=O)N[C@@H](Cc1ccc(C#Cc2ccc(N3C[C@@H]4C[C@H]3CN4C3COC3)nc2)cc1)[C@@H](O)CN(Cc1c(F)cc(-c2ccn(C3CC3)n2)cc1F)NC(=O)[C@@H](NC(=O)OC)C(C)(C)C(F)(F)F)C(C)(C)C(F)(F)F` [Example 39, Methyl ((5S,8S,9S,14S)-11-(4-(1-cyclopropyl-1H-pyrazol-3-yl)-2,6-difluorobenzyl)-16,16,16-trifluoro-9-hydroxy-15,15-dimethyl-8-(4-((6-((1S,4S)-5-(oxetan-3-yl)-2,5-diazabicyclo[2.2.]heptan-2-yl)pyridin-3-yl)ethynyl)benzyl)-3,6,13-trioxo-5-(1,1,1-trifluoro-2-methylpropan-2-yl)-2-oxa-4,7,11,12-tetraazahexadecan-14-yl)carbamate] as the compound, how does the “Human Pred Cl.” value [1, 4] read?
A: 0.15 L/H/kg

Q: What about the “Rat. Pred. Cl.” value ([1]; rat liver microsomes 0.5 mg/mL, 1 uM compound, NADPH) of the same compound?
A: 0.54 L/H/kg

Q: What about the EC50 [2] of the same compound?
A: 2.57 nM

Q: Which results are given for `COC(=O)N[C@H](C(=O)N[C@@H](Cc1ccc(C#Cc2ccc(N3CC4CCC(C3)N4S(C)(=O)=O)nc2)cc1)[C@@H](O)CN(Cc1c(F)cc(-c2cnn(C(F)F)c2)cc1F)NC(=O)[C@@H](NC(=O)OC)C(C)(C)C(F)(F)F)C(C)(C)C(F)(F)F` [Example 70, Methyl ((5S,8S,9S,14S)-11-(4-(1-(difluoromethyl)-1H-pyrazol-4-yl)-2,6-difluorobenzyl)-16,16,16-trifluoro-9-hydroxy-15,15-dimethyl-8-(4-((6-(8-(methylsulfonyl)-3,8-diazabicyclo[3.2.1]octan-3-yl)pyridin-3-yl)ethynyl)benzyl)-3,6,13-trioxo-5-(1,1,1-trifluoro-2-methylpropan-2-yl)-2-oxa-4,7,11,12-tetraazahexadecan-14-yl)carbamate]?
A: Human Pred Cl. ([1]; human, microsomes): <0.11 L/H/kg; Rat. Pred. Cl. ([1]; rat, microsomes): <0.18 L/H/kg; EC50 [2, 3]: 4.79 nM

Q: With `COC(=O)N[C@H](C(=O)N[C@@H](Cc1ccc(C#Cc2ccc(N3CC4CCC(C3)N4C3COC3)nc2)cc1)[C@@H](O)CN(Cc1c(F)cc(-c2nnc(C)o2)cc1F)NC(=O)[C@@H](NC(=O)OC)C(C)(C)C(F)(F)F)C(C)(C)C(F)(F)F` [Example 11, Methyl ((5S,8S,9S,14S)-11-(2,6-difluoro-4-(5-methyl-1,3,4-oxadiazol-2-yl)benzyl)-16,16,16-trifluoro-9-hydroxy-15,15-dimethyl-8-(4-((6-(8-(oxetan-3-yl)-3,8-diazabicyclo[3.2.1]octan-3-yl)pyridin-3-yl)ethynyl)benzyl)-3,6,13-trioxo-5-(1,1,1-trifluoro-2-methylpropan-2-yl)-2-oxa-4,7,11,12-tetraazahexadecan-14-yl)carbamate] as the compound, how does the “Human Pred Cl.” value ([1]; human, microsomes) read?
A: 0.18 L/H/kg

Q: What about the “Rat. Pred. Cl.” value ([1]; rat, microsomes) of the same compound?
A: 0.18 L/H/kg

Q: And the EC50 [2, 3]?
A: 3.72 nM

Q: Which “Human Pred Cl.” value [1, 4] does the source give for `COC(=O)N[C@H](C(=O)N[C@@H](Cc1ccc(C#Cc2ccc(N3CCN([C@@H]4CCOC4)CC3)nc2)cc1)[C@@H](O)CN(Cc1c(F)cc(-c2ccn(C(F)F)n2)cc1F)NC(=O)[C@@H](NC(=O)OC)C(C)(C)C(F)(F)F)C(C)(C)C(F)(F)F` [Example 146, Methyl ((5S,8S,9S,14S)-11-(4-(1-(difluoromethyl)-1H-pyrazol-3-yl)-2,6-difluorobenzyl)-16,16,16-trifluoro-9-hydroxy-15,15-dimethyl-3,6,13-trioxo-8-(4-((6-(4-((R)-tetrahydrofuran-3-yl)piperazin-1-yl)pyridin-3-yl)ethynyl)benzyl)-5-(1,1,1-trifluoro-2-methylpropan-2-yl)-2-oxa-4,7,11,12-tetraazahexadecan-14-yl)carbamate] here?
A: <0.11 L/H/kg

Q: What about the EC50 [2, 3] of the same compound?
A: 8.17 nM

Q: For `COC(=O)N[C@H](C(=O)N[C@@H](Cc1ccc(C#Cc2ccc(N3CC4CCC(C3)N4C3COC3)nc2)cc1)[C@@H](O)CN(Cc1c(F)cc(-c2cnn(C(F)F)c2)cc1F)NC(=O)[C@@H](NC(=O)OC)C(C)(C)CF)C(C)(C)CF` [Example 233, methyl ((5S,8S,9S,14S)-11-(4-(1-(difluoromethyl)-1H-pyrazol-4-yl)-2,6-difluorobenzyl)-16-fluoro-5-(1-fluoro-2-methylpropan-2-yl)-9-hydroxy-15,15-dimethyl-8-(4-((6-(8-(oxetan-3-yl)-3,8-diazabicyclo[3.2.1]octan-3-yl)pyridin-3-yl)ethynyl)benzyl)-3,6,13-trioxo-2-oxa-4,7,11,12-tetraazahexadecan-14-yl)carbamate], which “Human Pred Cl.” value ([1]; human, microsomes) is on record?
A: <0.11 L/H/kg

Q: And the “Rat. Pred. Cl.” value ([1]; rat, microsomes)?
A: <0.18 L/H/kg

Q: What about the EC50 [2, 3] of the same compound?
A: 2.71 nM

Q: Which “Human Pred Cl.” value ([1]; human, microsomes) does the source give for `COC(=O)N[C@H](C(=O)N[C@@H](Cc1ccc(-c2ccc(N3CC4CCC(C3)N4C3COC3)nc2)cc1)[C@@H](O)CN(Cc1c(F)cc(-c2ccn(CC(F)F)n2)cc1F)NC(=O)[C@@H](NC(=O)OC)C(C)(C)C(F)(F)F)C(C)(C)C(F)(F)F` [Example 195, methyl ((5S,8S,9S,14S)-11-(4-(1-(2,2-difluoroethyl)-1H-pyrazol-3-yl)-2,6-difluorobenzyl)-16,16,16-trifluoro-9-hydroxy-15,15-dimethyl-8-(4-(6-(8-(oxetan-3-yl)-3,8-diazabicyclo[3.2.1]octan-3-yl)pyridin-3-yl)benzyl)-3,6,13-trioxo-5-(1,1,1-trifluoro-2-methylpropan-2-yl)-2-oxa-4,7,11,12-tetraazahexadecan-14-yl)carbamate] here?
A: 0.12 L/H/kg

Q: What about the “Rat. Pred. Cl.” value ([1]; rat, microsomes) of the same compound?
A: 0.52 L/H/kg

Q: And the EC50 [2, 3]?
A: 2.76 nM

Q: For `COC(=O)N[C@H](C(=O)N[C@@H](Cc1ccc(C#Cc2ccc(N3CC4CCC(C3)N4C3COC3)nc2)cc1)[C@@H](O)CN(Cc1c(F)cc(-c2nnc(C3CC3)o2)cc1F)NC(=O)[C@@H](NC(=O)OC)C(C)(C)C(F)(F)F)C(C)(C)C(F)(F)F` [Example 129, Methyl ((5S,8S,9S,14S)-11-(4-(5-cyclopropyl-1,3,4-oxadiazol-2-yl)-2,6-difluorobenzyl)-16,16,16-trifluoro-9-hydroxy-15,15-dimethyl-8-(4-((6-(8-(oxetan-3-yl)-3,8-diazabicyclo[3.2.1]octan-3-yl)pyridin-3-yl)ethynyl)benzyl)-3,6,13-trioxo-5-(1,1,1-trifluoro-2-methylpropan-2-yl)-2-oxa-4,7,11,12-tetraazahexadecan-14-yl)carbamate], which “Human Pred Cl.” value ([1]; human, microsomes) is on record?
A: <0.11 L/H/kg

Q: And the EC50 [2, 3]?
A: 3.62 nM

Q: With `CCC(=O)N[C@H](C(=O)NN(Cc1c(F)cc(-c2ccn(C(F)F)n2)cc1F)C[C@H](O)[C@H](Cc1ccc(C#Cc2ccc(N3CC4CCC(C3)N4C3COC3)nc2)cc1)NC(=O)[C@@H](NC(=O)OC)C(C)(C)C(F)(F)F)C(C)(C)C` [Example 185, Methyl ((2S)-1-(((2S,3S)-4-(1-(4-(1-(difluoromethyl)-1H-pyrazol-3-yl)-2,6-difluorobenzyl)-2-((S)-3,3-dimethyl-2-propionamidobutanoyl)hydrazinyl)-3-hydroxy-1-(4-((6-(8-(oxetan-3-yl)-3,8-diazabicyclo[3.2.1]octan-3-yl)pyridin-3-yl)ethynyl)phenyl)butan-2-yl)amino)-4,4,4-trifluoro-3,3-dimethyl-1-oxobutan-2-yl)carbamate] as the compound, how does the “Human Pred Cl.” value ([1]; human, microsomes) read?
A: 0.32 L/H/kg

Q: What about the “Rat. Pred. Cl.” value ([1]; rat, microsomes) of the same compound?
A: 0.31 L/H/kg

Q: And the EC50 [2, 3]?
A: 2.58 nM

Q: What does the source list for `COC(=O)N[C@H](C(=O)N[C@@H](Cc1ccc(C#Cc2ccc(N3CCN([C@H]4CCOC4)CC3)nc2)cc1)[C@@H](O)CN(Cc1c(F)cc(-c2ccn(C(F)F)n2)cc1F)NC(=O)[C@@H](NC(=O)OC)C(C)(C)C(F)(F)F)C(C)(C)C(F)(F)F` [Example 145, Methyl ((5S,8S,9S,14S)-11-(4-(1-(difluoromethyl)-1H-pyrazol-3-yl)-2,6-difluorobenzyl)-16,16,16-trifluoro-9-hydroxy-15,15-dimethyl-3,6,13-trioxo-8-(4-((6-(4-((S)-tetrahydrofuran-3-yl)piperazin-1-yl)pyridin-3-yl)ethynyl)benzyl)-5-(1,1,1-trifluoro-2-methylpropan-2-yl)-2-oxa-4,7,11,12-tetraazahexadecan-14-yl)carbamate]?
A: Human Pred Cl. [1, 4]: <0.11 L/H/kg; EC50 [2]: 5.06 nM

Q: With `COC(=O)N[C@H](C(=O)N[C@@H](Cc1ccc(-c2ccc(N3CC4CCC(C3)N4C3COC3)nc2)cc1)[C@@H](O)CN(Cc1c(F)cc(-c2ccn(C)n2)cc1F)NC(=O)[C@@H](NC(=O)OC)C(C)(C)C(F)(F)F)C(C)(C)C(F)(F)F` [Example 207, Methyl ((5S,8S,9S,14S)-11-(2,6-difluoro-4-(1-methyl-1H-pyrazol-3-yl)benzyl)-16,16,16-trifluoro-9-hydroxy-15,15-dimethyl-8-(4-(6-(8-(oxetan-3-yl)-3,8-diazabicyclo[3.2.1]octan-3-yl)pyridin-3-yl)benzyl)-3,6,13-trioxo-5-(1,1,1-trifluoro-2-methylpropan-2-yl)-2-oxa-4,7,11,12-tetraazahexadecan-14-yl)carbamate] as the compound, how does the “Human Pred Cl.” value ([1]; human, microsomes) read?
A: 0.25 L/H/kg

Q: And the “Rat. Pred. Cl.” value ([1]; rat, microsomes)?
A: 0.92 L/H/kg

Q: What about the EC50 [2, 3] of the same compound?
A: 2.46 nM
